From US8609727B2, “Dicarboxylic acid derivatives and their use” (Bayer Intellectual Property GmbH, priority 2005, dated 2013)

Columns and labels:
saphenous artery rings = assay: Vasorelaxant effect in vitro (phenylephrine-contracted artery rings); type: cell-based, Rabbits; conditions: rabbit saphenous artery rings, contraction induced by phenylephrine
Procedure: B-1. Vasorelaxant Effect In Vitro:
Rabbits are anaesthetized and sacrificed by intravenous injection of thiopental sodium (about 50 mg/kg) and exsanguinated. The saphenous artery is removed and divided into rings 3 mm wide. The rings are mounted singly on in each case a pair of triangular hooks open at the end and made of 0.3 mm-thick special wire (Remanium®). Each ring is placed under an initial tension in 5 ml organ baths with Krebs-Henseleit solution which is at 37° C., is gassed with 95% O2/5% CO2 and has the following composition: NaCl 119 mM; KCl 4.8 mM; CaCl2×2H2O 1 mM; MgSO4×7H2O 1.4 mM; KH2PO4 1.2 mM; NaHCO3 25 mM; glucose 10 mM; bovine serum albumin 0.001%. The force of contraction is detected with Statham UC2 cells, amplified and digitized via A/D converters (DAS-1802 HC, Keithley Instruments, Munich) and recorded in parallel on chart recorders. Contractions are induced by addition of phenylephrine.
After several (generally 4) control cycles, the substance to be investigated is added in each further run in increasing dosage, and the height of the contraction achieved under the influence of the test substance is compared with the height of the contraction reached in the last preceding run. The concentration necessary to reduce the contraction reached in the preceding control by 50% is calculated from this (IC50). The standard application volume is 5 μl. The proportion of DMSO in the bath solution corresponds to 0.1%.

[1] = biological target: T1, Haem-containing sGC (recombinant soluble guanylate cyclase) (Rattus norvegicus, UniProt P20595); assay: Stimulation of recombinant soluble guanylate cyclase (sGC) in vitro, haem-containing enzyme; type: biochemical; conditions: 0.0 μM Example 5
T1 construct: made in house; host or cells: Sf9 insect cells (baculovirus)
T1 sequence (P20595 1-619): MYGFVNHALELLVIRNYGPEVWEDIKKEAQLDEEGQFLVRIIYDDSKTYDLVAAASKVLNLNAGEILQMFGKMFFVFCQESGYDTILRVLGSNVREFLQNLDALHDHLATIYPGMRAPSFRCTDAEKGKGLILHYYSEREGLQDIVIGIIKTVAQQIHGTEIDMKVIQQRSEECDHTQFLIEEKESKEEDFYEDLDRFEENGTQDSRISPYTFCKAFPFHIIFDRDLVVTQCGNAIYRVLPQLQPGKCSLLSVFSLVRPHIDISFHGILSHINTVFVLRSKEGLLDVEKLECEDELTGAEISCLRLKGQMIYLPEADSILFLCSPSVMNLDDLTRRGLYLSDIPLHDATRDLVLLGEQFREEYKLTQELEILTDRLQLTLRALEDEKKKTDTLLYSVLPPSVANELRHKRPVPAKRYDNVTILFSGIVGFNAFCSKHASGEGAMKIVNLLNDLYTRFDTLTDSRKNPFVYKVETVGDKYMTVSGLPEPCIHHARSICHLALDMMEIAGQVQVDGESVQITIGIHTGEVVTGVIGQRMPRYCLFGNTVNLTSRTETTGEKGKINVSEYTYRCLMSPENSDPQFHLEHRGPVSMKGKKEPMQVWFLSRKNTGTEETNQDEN
T1 sequence (P19686 1-690 partner): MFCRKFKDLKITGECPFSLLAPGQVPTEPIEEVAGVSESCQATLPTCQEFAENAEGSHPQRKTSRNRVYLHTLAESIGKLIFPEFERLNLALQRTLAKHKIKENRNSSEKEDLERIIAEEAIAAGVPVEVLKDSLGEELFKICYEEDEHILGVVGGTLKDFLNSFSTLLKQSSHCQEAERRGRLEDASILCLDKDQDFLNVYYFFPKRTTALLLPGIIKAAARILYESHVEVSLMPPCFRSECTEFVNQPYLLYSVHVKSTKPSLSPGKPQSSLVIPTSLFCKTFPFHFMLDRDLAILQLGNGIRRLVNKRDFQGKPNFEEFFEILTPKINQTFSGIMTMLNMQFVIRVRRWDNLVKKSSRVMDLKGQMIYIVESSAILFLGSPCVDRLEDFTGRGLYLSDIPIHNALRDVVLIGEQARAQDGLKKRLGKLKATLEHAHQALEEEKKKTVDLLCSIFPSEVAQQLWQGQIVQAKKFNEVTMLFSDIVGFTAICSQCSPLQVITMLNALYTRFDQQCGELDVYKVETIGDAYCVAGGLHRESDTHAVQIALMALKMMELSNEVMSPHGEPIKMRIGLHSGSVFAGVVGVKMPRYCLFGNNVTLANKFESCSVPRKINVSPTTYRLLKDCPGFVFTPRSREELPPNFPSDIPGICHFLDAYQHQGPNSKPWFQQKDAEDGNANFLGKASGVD
From the text: (§1) B-2. Stimulation of Recombinant Soluble Guanylate Cyclase (sGC) In Vitro:
Hoenicka, E. M. Becker, H. Apeler, T. Sirichoke, H. Schroeder, R. Gerzer and J.-P. Stasch, “Purified soluble guanylyl cyclase expressed in a baculovirus/Sf9 system: Stimulation by YC-1, nitric oxide, and carbon oxide”, J. Mol. Med. 77 (1999), 14-23. The haem-free guanylate cyclase is obtained by adding Tween 20 to the sample buffer (0.5% in the final concentration).
(§2) The activation of sGC by a test substance is reported as n-fold stimulation of the basal activity.

[2] = biological target: T2, Haem-free sGC (recombinant soluble guanylate cyclase) (Rattus norvegicus, UniProt P20595); assay: Stimulation of recombinant soluble guanylate cyclase (sGC) in vitro, haem-free enzyme; type: biochemical; conditions: 10 μM ODQ, 0.0 μM Example 5
T2 construct: made in house; host or cells: Sf9 insect cells (baculovirus)
T2 sequence (P20595 1-619): T1 sequence (P20595 1-619)
T2 sequence (P19686 1-690 partner): T1 sequence (P19686 1-690 partner)
Procedure: as §1
Investigations on the stimulation of recombinant soluble guanylate cyclase (sGC) by the compounds according to the invention with and without sodium nitroprusside, and with and without the haem-dependent sGC inhibitor 1H-1,2,4-oxadiazole-(4,3a)-quinoxalin-1-one (ODQ) are carried out by the method described in detail in the following reference: M. Hoenicka, E. M. Becker, H. Apeler, T. Sirichoke, H. Schroeder, R. Gerzer and J.-P. Stasch, “Purified soluble guanylyl cyclase expressed in a baculovirus/Sf9 system: Stimulation by YC-1, nitric oxide, and […]”, J. Mol. Med. 77 (1999), 14-23. The haem-free guanylate cyclase is obtained by adding Tween 20 to the sample buffer (0.5% in the final concentration).
as §2

IC50 (saphenous artery rings; Oryctolagus cuniculus) [nM] | SMILES | also measured
4 | O=C(O)c1ccc(CCC(/C=C/c2ccccc2OCc2cc(C(F)(F)F)cc(C(F)(F)F)c2)Cc2ccc(C(=O)O)cc2)cc1 (stereo not shown) [Example 48] | –
370 | O=C(O)c1ccc(CCC(/C=C/c2ccccc2OC(F)(F)c2ccc(C(F)(F)F)cc2)Cc2ccc(C(=O)O)cc2)cc1 (stereo not shown) [Example 50] | –
6 | O=C(O)c1ccc(CCC(/C=C/c2ccccc2OCc2ccc(OC(F)(F)F)cc2)Cc2ccc(C(=O)O)cc2)cc1 (stereo not shown) [Example 45] | –
90 | O=C(O)c1ccc(CCC(/C=C/c2cc(F)ccc2OCc2ccc(C(F)(F)F)cc2)Cc2ccc(C(=O)O)cc2)cc1 (single isomer, unassigned) [Example 54, 4-[(4E)-3-(4-Carboxybenzyl)-5-(5-fluoro-2-{[4-(trifluoromethyl)benzyl]oxy}phenyl)pent-4-en-1-yl]benzoic Acid] | –
22 | O=C(O)c1ccc(CCC(/C=C/c2ccccc2OCc2ccc(C(F)(C(F)(F)F)C(F)(F)F)cc2)Cc2ccc(C(=O)O)cc2)cc1 (stereo not shown) [Example 44, 4-{(4E)-3-(4-Carboxybenzyl)-5-[2-({4-[1,2,2,2-tetrafluoro-1-(trifluoromethyl)ethyl]benzyl}oxy)-phenyl]pent-4-en-1-yl}benzoic Acid] | –
287 | O=C(O)c1ccc(CCC(/C=C/c2cc(F)ccc2OCc2ccc(C(F)(F)F)cc2)Cc2ccc(C(=O)O)cc2)cc1 (stereo not shown) [Example 55] | –

Continued, molecule first:

SMILES | IC50 (saphenous artery rings; Oryctolagus cuniculus) [nM] | also measured
O=C(O)c1ccc(CCC(/C=C/c2ccccc2OCc2ccc(CCc3ccccc3)cc2)Cc2ccc(C(=O)O)cc2)cc1 (racemic) [Example 7, 4-[(4E)-3-(4-Carboxybenzyl)-5-(2-{[4-(2-phenylethyl)benzyl]oxy}phenyl)pent-4-en-1-yl]benzoic acid] | 21 | –
O=C(O)c1ccc(CCC(/C=C/c2cc(F)ccc2OCc2ccc(OC(F)(F)F)cc2)Cc2ccc(C(=O)O)cc2)cc1 (stereo not shown) [Example 56] | 77 | –
O=C(O)c1ccc(CCC(/C=C/c2ccccc2OCCCCC(F)(F)F)Cc2ccc(C(=O)O)cc2)cc1 (racemic) [Example 42, 4-[(4E)-3-(4-Carboxybenzyl)-5-{2-[(5,5,5-trifluoropentyl)oxy]phenyl}pent-4-en-1-yl]benzoic Acid] | 19 | –
O=C(O)c1ccc(CCC(/C=C/c2ccccc2OCCCC(F)(F)F)Cc2ccc(C(=O)O)cc2)cc1 (racemic) [Example 11, 4-{(4E)-3-(4-Carboxybenzyl)-5-[2-(4,4,4-trifluorobutoxy)phenyl]pent-4-en-1-yl}benzoic Acid] | 129 | –
CCCCCOc1ccccc1/C=C/C(CCc1ccc(C(=O)O)cc1)Cc1ccc(C(=O)O)cc1 (racemic) [Example 17, 4-{(4E)-3-(4-Carboxybenzyl)-5-[2-(pentyloxy)phenyl]pent-4-en-1-yl}benzoic Acid] | 1.1 | –
COc1ccccc1/C=C/C(CCc1ccc(C(=O)O)cc1)Cc1ccc(C(=O)O)cc1 (racemic) [Example 13, 4-[(4E)-3-(4-Carboxybenzyl)-5-(2-methoxyphenyl)pent-4-en-1-yl]benzoic Acid] | 52.2 | –
CC(C)(C)c1ccc(COc2ccccc2/C=C/C(CCc2ccc(C(=O)O)cc2)Cc2ccc(C(=O)O)cc2)cc1 (racemic) [Example 2, 4-[(4E)-5-{2-[(4-tert-Butylbenzyl)oxy]phenyl}-3-(4-carboxybenzyl)pent-4-en-1-yl]benzoic Acid] | – | IC50 (saphenous artery rings): 0.54 nM
CC(C)(C)c1ccc(COc2ccccc2/C=C/C(CCc2ccc(C(=O)O)cc2)Cc2ccc(C(=O)O)cc2)cc1 (racemic) [Example 3, 4-[(4E)-5-{2-[(4-tert-Butylbenzyl)oxy]phenyl}-3-(4-carboxybenzyl)pent-4-en-1-yl]benzoic Acid] | – | IC50 (saphenous artery rings): 4.7 nM
O=C(O)c1ccc(CCC(/C=C/c2ccccc2OCCCCCc2ccccc2)Cc2ccc(C(=O)O)cc2)cc1 (racemic) [Example 6, 4-((4E)-3-(4-Carboxybenzyl)-5-{2-[(5-phenylpentyl)oxy]phenyl}pent-4-en-1-yl)benzoic Acid] | – | IC50 (saphenous artery rings): 122 nM
O=c1onc2cnc3ccccc3n12 [ODQ, 1H-1,2,4-oxadiazole-(4,3a)-quinoxalin-1-one, reference compound] | – | Stimulation (n-fold) Haem-containing sGC with ODQ alone ([1]; 10 μM ODQ): 38.8 n-fold; Stimulation (n-fold) Haem-free sGC with ODQ alone [2]: 2.0 n-fold
CCN(CC)[N+]([O-])=NO [DEA/NO, 2-(N,N-diethylamino)diazenolate 2-oxide, reference compound] | – | Stimulation (n-fold) Haem-containing sGC by DEA/NO alone ([1]; 0.1 μM DEA/NO): 78.7 n-fold
O=C(O)c1ccc(CCC(C=Cc2ccccc2OCc2ccc(-c3ccc(C(F)(F)F)cc3)cc2)Cc2ccc(C(=O)O)cc2)cc1 (stereo not shown) [Example 10, 4-[(4E/Z)-3-(4-Carboxybenzyl)-5-(2-{[4′-(trifluoromethyl)biphenyl-4-yl]methoxy}phenyl)pent-4-en-1-yl]benzoic Acid] | 48 | –
